From PMC8395886, “Square-Planar vs. Trigonal Bipyramidal Geometry in Pt(II) Complexes Containing Triazole-Based Glucose Ligands as Potential Anticancer Agents” (International Journal of Molecular Sciences, 2021)
Like-named read-outs stand apart in the source and are kept apart here.

Columns and labels:
[1] = tested on: HaCaT (human keratinocyte cells); test: MTT cytotoxicity assay on HaCaT cells; format: cell-based; conditions: 48 h incubation
Protocol: (§7) A431, H9c2, and MCF7 cells were purchased from American Type Culture Collection (ATCC). HaCaT cells were from Innoprot (Derio, Spain). Cells were cultured in DMEM (Sigma-Aldrich, St. Louis, MO, USA), supplemented with 10% fetal bovine serum (HyClone, Thermo Scientific, Logan, UT, USA) and antibiotics in a 5% CO2 humidified atmosphere at 37 °C. The growth medium of H9c2 cells was implemented with 2 mM L-glutamine and 2 mM sodium pyruvate. Cells were seeded in 96-well plates at a density of 2.5 × 10^3 cells per well. Different drugs were added at increasing concentrations 24 h after seeding for dose-dependent assays. […] After 48 h incubation, cell viability was assessed by MTT assay, as described in a previous study [30]. Control experiments were performed by either growing cells in the absence of the compound or by supplementing the cell cultures with identical volumes of buffer (water:acetone, 1:1 v/v). Each value is the mean of three independent experiments, each with three determinations. Significance was determined by Student’s t-test.

[2] = tested on: A431 (epidermoid carcinoma cells); test: MTT cytotoxicity assay on A431 cells; format: cell-based, human; conditions: for IC50: 48 h incubation; for Selectivity Index H9c2/A431 / Selectivity Index HaCaT/A431: IC50 immortalized cells/IC50 cancer cells
Protocol: as §7

[3] = tested on: H9c2 (rat cardiomyoblast cells); test: MTT cytotoxicity assay on H9c2 cells; format: cell-based; conditions: 48 h incubation
Protocol: as §7

[4] = tested on: MCF-7 (breast cancer cells); test: MTT cytotoxicity assay on MCF7 cells; format: cell-based, human; conditions: for IC50: 48 h incubation; for Selectivity Index H9c2/MCF7 / Selectivity Index HaCaT/MCF7: IC50 immortalized cells/IC50 cancer cells
Protocol: as §7

[5] = In-solution stability by 1H-NMR over time; format: physicochemical
Protocol: To compare the solution stability of the complexes, ^1H-NMR and UV–vis spectra over time were recorded for 4Pt type species dissolved in diverse aqueous (phosphate buffer, PB; pH 7.4): organic solvent mixtures, i.e., 1:1 v/v D2O:acetone-d6; 9:1 v/v PB:DMSO-d6; 1:1 v/v PB:DMSO-d6 and DMSO-d6. These solvents were selected to verify the stability in pseudo-physiological conditions in the presence of solvents with different coordinating properties and concentrations.
The appropriate 4Pt complex (5 mg) was dissolved in 0.5 mL of DMSO-d6 or acetone-d6. Calculated volumes of solution were diluted to 600 µL with the appropriate volumes of PB in D2O (25 mM, pH 7.4) and/or DMSO-d6 to provide a 1 mM solution of the complex with the appropriate v/v ratio of solvents. Samples were incubated at 37 °C, and NMR spectra were recorded at different times.

[6] = tested on: MCF-7, A431, H9c2 and HaCaT cells; test: MTT assay, all the analyzed cell lines (statement in words); format: cell-based; conditions: 48 h
Protocol: The biological effect of the Pt-compounds was tested on two human tumor cell lines, MCF-7 (breast cancer cells) and A431 (epidermoid carcinoma cells), and two non-tumorigenic cell lines, H9c2 (rat cardiomyoblast cells), and HaCaT (human keratinocyte cells), using the MTT assay. […] Indeed, due to their inertness towards the substitution of the sugar ligand, their biological activity can be influenced by the nature of the sugar ligand, whose presence in the complex can affect its internalization or mechanism of action once inside the cell. On the other hand, in the case of the five-coordinate complexes, the loss of the sugar tag plausibly determines their substantial leveling of activities. […] The behavior of 4Pt-im was very similar to that of 4Pt-py.
(§1) A431, H9c2, and MCF7 cells were purchased from American Type Culture Collection (ATCC). HaCaT cells were from Innoprot (Derio, Spain). Cells were cultured in DMEM (Sigma-Aldrich, St. Louis, MO, USA), supplemented with 10% fetal bovine serum (HyClone, Thermo Scientific, Logan, UT, USA) and antibiotics in a 5% CO2 humidified atmosphere at 37 °C. The growth medium of H9c2 cells was implemented with 2 mM L-glutamine and 2 mM sodium pyruvate. […] After 48 h incubation, cell viability was assessed by MTT assay, as described in a previous study. […] Significance was determined by Student’s t-test.

A431 cells [7] = test: GLUT1-inhibitor-mediated cytotoxicity assay (quercetin, MTT); format: cell-based, human
Protocol: (§2) The cell death mechanism induced by 4Pt-py was analyzed on A431 cells. First, the internalization process of 4Pt-py was evaluated by studying the involvement of GLUT receptors. In particular, 4Pt-py internalization and cytotoxicity were tested using quercetin as a glucose transporter inhibitor [24, 30, 42]. […] The 10 µM concentration used was very similar to the IC50 value, and then, a double value (20 µM) was also used to definitely exclude necrosis at very high concentrations.
as §1
(§3) Figure 8 Analysis of the mechanism of action of 4Pt-py. […] Cell viability was assessed using the MTT assay after 48 h incubation. […] (B) Cells were incubated with increasing amounts of 4Pt-py for 48 h, and the release of LDH was measured. […] The % of LDH release was calculated as described in the Materials and Methods section.

A431 cells [8] = test: LDH release (necrosis); format: cell-based, human; conditions: 10 and 20 µM, 48 h
Protocol: as §2
The occurrence of necrosis was determined by measuring the release of lactate dehydrogenase (LDH) in the culture medium, as described by Sucha et al.. The LDH content of the medium from untreated cells was referred to as a spontaneous release, whereas the LDH total cellular content was determined upon cell lysis. The percentage of LDH release was calculated as:(1) LDH release % = [experimental−spontaneus release/total content−spontaneous release]×100
as §3, with “4Pt-py. (A) Glucose-transporter-dependent cytotoxicity of 4Pt-py on A431 cells.” for “4Pt-py.”

procaspase-3 = conditions: A431 cells, 12 μM, 48 h
Protocol: (§4) The activation of the apoptotic pathway was analyzed by Western blotting and an analysis of the mitochondrial potential as it is well known that mitochondrial outer membrane permeabilization is essential to initiate mitochondrial apoptosis.
(§5) A431 cells were plated at a density of 3 × 10^5 cells cm^−2 in a complete medium for 24 h and then treated for 48 h with 12 µM 4Pt-py. At the end of the incubation, both untreated and treated cells were analyzed, as described previously for Western blot analyses. Upon the determination of total protein concentration in the supernatant by the Bradford assay, samples were analyzed by SDS-PAGE and Western blot using specific antibodies directed towards procaspase-3 or -9 (Cell Signal Technology, Danvers, MA, USA). β-actin (Sigma-Aldrich) or GAPDH (Thermo Fisher, Rockford, IL, USA) was used as the loading control. Each value is the mean of three independent experiments, each with three determinations. Significance was determined by Student’s t-test.
(§6) A431 cells were incubated with 12 μM of 4Pt-py for 48 h. (A,B) Analysis by Western blotting of pro-caspase-3 and -9. Β-actin or GAPDH was used as the loading control.

procaspase-9 = conditions: A431 cells, 12 μM, 48 h
Protocol: as §4, §5, §6

A431 cells [9] = conditions: IC50 value (12 µM) and 20 µM, 48 h
Protocol: as §4
Each value is the mean of three independent experiments, each with three determinations. Significance was determined by Student’s t-test.
as §6

[10] = tested on: HaCaT (human keratinocyte cells); conditions: 48 h incubation; read-out: MTT IC50 48 h, HaCaT; cited from earlier work
[11] = tested on: A431 (epidermoid carcinoma cells); conditions: 48 h incubation; read-out: MTT IC50 48 h, A431; cited from earlier work

| Structure (SMILES) | IC50 [1] [µM] | IC50 [2] [µM] | Selectivity Index H9c2/A431 [2] | Selectivity Index HaCaT/A431 [2] | IC50 [3] [µM] | IC50 [4] [µM] | Selectivity Index H9c2/MCF7 [4] | Selectivity Index HaCaT/MCF7 [4] | Structural variations in solution (1H-NMR) ([5]; 1:1 v/v D2O:acetone-d6, over 3 days) | Toxic activity (in words) [6] | Inhibition of cytotoxicity by glucose transporter inhibitor quercetin (A431 cells [7]; A431 cells, 0.5–200 μM compound ± 5 μM quercetin, 48 h) | LDH release (A431 cells [8]) | Pro-caspase-3 signal (procaspase-3) | Pro-caspase-9 signal (procaspase-9) | Mitochondrial potential (Δψm) (A431 cells [9]) | Time to equilibrium of sugar ligand/DMSO exchange ([5]; 1:1 v/v PB:DMSO-d6, 37 °C) [h] | IC50 [10] [µM] | IC50 [11] [µM] | Lethality of quercetin alone (A431 cells [7]; 5 μM, data not shown) |
| --- | --- | --- | --- | --- | --- | --- | --- | --- | --- | --- | --- | --- | --- | --- | --- | --- | --- | --- | --- |
| CC(=O)OC[C@H]1O[C@@H](n2cc(-c3c[n+]([Pt-2]4([CH3])[n+]5cccc6ccc7ccc[n+]4c7c65)cn3C)nn2)[C@H](OC(C)=O)[C@@H](OC(C)=O)[C@@H]1OC(C)=O.O=S(=O)([O-])C(F)(F)F [4Pt-im] | 27 ± 7 | 16 ± 8 | 3.3 | 1.69 | 53 ± 11 | 43 ± 7 | 1.23 | 0.63 | No appreciable structural variations | – | – | – | – | – | – | – | – | – | – |
| Cn1c[n+]([Pt-2]2([CH3])[n+]3cccc4ccc5ccc[n+]2c5c43)cc1-c1cn([C@@H]2O[C@H](CO)[C@@H](O)[C@H](O)[C@H]2O)nn1.O=S(=O)([O-])C(F)(F)F [4Pt-imdep] | > 200 | > 200 | – | – | > 200 | > 200 | – | – | – | No toxic activity was observed | – | – | – | – | – | – | – | – | – |
| CC(=O)OC[C@H]1O[C@@H](n2cc(-c3ccc[n+]([Pt-2]4([CH3])[n+]5cccc6ccc7ccc[n+]4c7c65)c3)nn2)[C@H](OC(C)=O)[C@@H](OC(C)=O)[C@@H]1OC(C)=O.O=S(=O)([O-])C(F)(F)F [4Pt-py] | 66 ± 11 | 12 ± 2 | 1.83 | 5.5 | 22 ± 10 | 35 ± 4 | 0.63 | 1.88 | – | – | no inhibition of cytotoxicity was observed in the presence of quercetin | no LDH release was observed | small but significant decrease | small but significant decrease | significant decrease | 24 | – | – | – |
| N.N.[Cl][Pt][Cl] [Cisplatin, reference compound] | – | – | 0.2 | 0.17 | 8 ± 2.1 | 18 ± 1.6 | 0.44 | – | – | – | – | – | – | – | – | – | 6.6 ± 0.3 | 39 ± 12 | – |
| O=c1c(O)c(-c2ccc(O)c(O)c2)oc2cc(O)cc(O)c12 [quercetin, reference compound] | – | – | – | – | – | – | – | – | – | – | – | – | – | – | – | – | – | – | non-lethal concentration |
